Source: USRE39591E1, “6-O-substituted ketolides having antibacterial activity” (Abbott Laboratories, priority 1996, dated 2007)
In brackets after ≈: the same amount, converted by molar mass.

Tested on: up to 32 different microorganisms
Test: in vitro antibacterial activity (MIC), agar dilution on Brain Heart Infusion (BHI) agar with Steers replicator
Type: cell-based
Settings: unit assumed
Procedure: Representative compounds of the present invention were assayed in vitro for antibacterial activity as follows: Twelve petri dishes containing successive aqueous dilutions of the test compound mixed with 10 mL of sterilized Brain Heart Infusion (BHI) agar (Difco 0148-01-5) were prepared. Each plate was inoculated with 1:100 (or 1:10 for slow-growing strains, such as Micrococcus and Streptococcus) dilutions of up to 32 different microorganisms, using a Steers replicator block. The inoculated plates were incubated at 35°-37° C. for 20 to 24 hours. In addition, a control plate, using BHI agar containing no test compound, was prepared and incubated at the beginning and end of each test.
An additional plate containing a compound having known susceptibility patterns for the organisms being tested and belonging to the same antibiotic class as the test compound was also prepared and incubated as a further control, as well as to provide test-to-test comparability. Erythromycin A was used for this purpose.
After incubation, each plate was visually inspected. The minimum inhibitory concentration (MIC) was defined as the lowest concentration of drug yielding no growth, a slight haze, or sparsely isolated colonies on the inoculum spot as compared to the growth control.

Work on `CCC1OC(=O)C(C)C(=O)C(C)C(OC2OC(C)CC(N(C)C)C2O)C(C)(OCC=Cc2cnc3ccc(C(=O)OC)cc3c2)CC(C)C(=O)C(C)C2NC(=O)OC12C` (centres unmarked) [Example 216, R is —CH2CH═CH-(6-methoxycarbonyl-3-quinolyl)] yielded an MIC (organism code AA) of 0.2 µg/mL (≈ 0.243 µM), an MIC (organism code BB) of 0.2 µg/mL (≈ 0.243 µM) and an MIC (organism code CC) of over 100 µg/mL. For the same molecule, the MIC (organism code DD) was 0.2 µg/mL (≈ 0.243 µM), the MIC (organism code EE) was 0.2 µg/mL (≈ 0.243 µM) and the MIC (organism code FF) was 0.2 µg/mL (≈ 0.243 µM). It also gave an MIC (organism code GG) of over 100 µg/mL, an MIC (organism code HH) of 0.2 µg/mL (≈ 0.243 µM) and an MIC (organism code II) of 0.05 µg/mL (≈ 0.0607 µM). It also gave an MIC (organism code JJ) of 0.01 µg/mL (≈ 0.0121 µM), an MIC (organism code KK) of 0.02 µg/mL (≈ 0.0243 µM) and an MIC (organism code LL) of 0.02 µg/mL (≈ 0.0243 µM). For the same molecule, the MIC (organism code MM) was 0.78 µg/mL (≈ 0.947 µM), the MIC (organism code NN) was 0.2 µg/mL (≈ 0.243 µM) and the MIC (organism code OO) was 0.05 µg/mL (≈ 0.0607 µM). For the same molecule, the MIC (organism code PP) was 0.1 µg/mL (≈ 0.121 µM), the MIC (organism code QQ) was 100 µg/mL (≈ 121 µM) and the MIC (organism code RR) was 0.39 µg/mL (≈ 0.473 µM). The MIC (organism code SS) was over 100 µg/mL, the MIC (organism code TT) was over 100 µg/mL and the MIC (organism code UU) was 0.78 µg/mL (≈ 0.947 µM). It also gave an MIC (organism code VV) of 0.1 µg/mL (≈ 0.121 µM), an MIC (organism code WW) of 2 µg/mL (≈ 2.43 µM) and an MIC (organism code XX) of 0.015 µg/mL (≈ 0.0182 µM). The MIC (organism code YY) was 0.015 µg/mL (≈ 0.0182 µM), the MIC (organism code ZZ) was 0.5 µg/mL (≈ 0.607 µM) and the MIC (organism code ZZA) was 0.25 µg/mL (≈ 0.303 µM).

For `CCC1OC(=O)C(C)C(=O)C(C)C(OC2OC(C)CC(N(C)C)C2O)C(C)(OCC=Cc2cccc3c([N+](=O)[O-])cccc23)CC(C)C(=O)C(C)C2NC(=O)OC12C` (centres unmarked) [Example 281, Compound of Formula (IX): L is CO, T is NH2, R is —CH2CH═CH-(5-nitronaphthyl)], the MIC (organism code AA) was 0.78 µg/mL, the MIC (organism code BB) was 0.78 µg/mL and the MIC (organism code CC) was over 100 µg/mL. The MIC (organism code DD) was 0.78 µg/mL, the MIC (organism code EE) was 0.78 µg/mL and the MIC (organism code FF) was 0.78 µg/mL. It also gave an MIC (organism code GG) of over 100 µg/mL, an MIC (organism code HH) of 0.78 µg/mL and an MIC (organism code II) of 0.39 µg/mL. It also gave an MIC (organism code JJ) of 0.05 µg/mL, an MIC (organism code KK) of 0.1 µg/mL and an MIC (organism code LL) of 0.1 µg/mL. For the same molecule, the MIC (organism code MM) was 50 µg/mL, the MIC (organism code NN) was 0.39 µg/mL and the MIC (organism code OO) was 0.2 µg/mL. The MIC (organism code PP) was 0.78 µg/mL, the MIC (organism code QQ) was over 100 µg/mL and the MIC (organism code RR) was 3.1 µg/mL. It also gave an MIC (organism code SS) of over 100 µg/mL, an MIC (organism code TT) of over 100 µg/mL and an MIC (organism code UU) of 3.1 µg/mL. It also gave an MIC (organism code VV) of 3.1 µg/mL, an MIC (organism code WW) of 32 µg/mL and an MIC (organism code XX) of 0.25 µg/mL. It also gave an MIC (organism code YY) of 0.25 µg/mL, an MIC (organism code ZZ) of 64 µg/mL and an MIC (organism code ZZA) of 1 µg/mL.

Molecule `CCC1OC(=O)C(C)C(=O)C(C)C(OC2OC(C)CC(N(C)C)C2O)C(C)(OCC=Cc2cn(C)c(=O)n(C)c2=O)CC(C)C(=O)C(C)C2NC(=O)OC12C` (centres unmarked) [Example 293, Compound of Formula (IX): L is CO, T is NH, R is —CH2—CH═CH-(1,3-dimethyl-2,4-dioxo-5-pyrimidinyl)] has an MIC (organism code AA) of 0.39 µg/mL, an MIC (organism code BB) of 0.39 µg/mL and an MIC (organism code CC) of over 100 µg/mL. The MIC (organism code DD) was 0.39 µg/mL, the MIC (organism code EE) was 0.39 µg/mL and the MIC (organism code FF) was 0.39 µg/mL. It also gave an MIC (organism code GG) of over 100 µg/mL, an MIC (organism code HH) of 0.39 µg/mL and an MIC (organism code II) of 0.1 µg/mL. The MIC (organism code JJ) was 0.02 µg/mL, the MIC (organism code KK) was 0.05 µg/mL and the MIC (organism code LL) was 0.02 µg/mL. It also gave an MIC (organism code MM) of over 100 µg/mL, an MIC (organism code NN) of 0.78 µg/mL and an MIC (organism code OO) of 0.05 µg/mL. For the same molecule, the MIC (organism code PP) was 0.2 µg/mL, the MIC (organism code QQ) was over 100 µg/mL and the MIC (organism code RR) was 0.78 µg/mL. For the same molecule, the MIC (organism code SS) was over 100 µg/mL, the MIC (organism code TT) was over 100 µg/mL and the MIC (organism code UU) was 12.5 µg/mL. The MIC (organism code VV) was 0.78 µg/mL, the MIC (organism code WW) was 16 µg/mL and the MIC (organism code XX) was 0.03 µg/mL. For the same molecule, the MIC (organism code YY) was 0.03 µg/mL, the MIC (organism code ZZ) was over 128 µg/mL and the MIC (organism code ZZA) was 0.5 µg/mL.

Work on `CC[C@H]1OC(=O)[C@H](C)C(=O)[C@H](C)[C@@H](O[C@@H]2O[C@H](C)C[C@H](N(C)C)[C@H]2O)[C@@](C)(OCC(=O)c2ccccc2)C[C@@H](C)C(=O)[C@H](C)[C@H]2NC(=O)O[C@@]21C` [Example 239, Compound of Formula (IX): L is CO, T is NH, R is —CH2C(O)-phenyl] yielded an MIC (organism code AA) of 6.2 µg/mL, an MIC (organism code BB) of 6.2 µg/mL and an MIC (organism code CC) of over 100 µg/mL. It also gave an MIC (organism code DD) of 6.2 µg/mL, an MIC (organism code EE) of 6.2 µg/mL and an MIC (organism code FF) of 6.2 µg/mL. The MIC (organism code GG) was over 100 µg/mL, the MIC (organism code HH) was 6.2 µg/mL and the MIC (organism code II) was 1.56 µg/mL. The MIC (organism code JJ) was 0.39 µg/mL, the MIC (organism code KK) was 0.39 µg/mL and the MIC (organism code LL) was 0.39 µg/mL. The MIC (organism code MM) was over 100 µg/mL, the MIC (organism code NN) was 1.56 µg/mL and the MIC (organism code OO) was 0.39 µg/mL. It also gave an MIC (organism code PP) of 1.56 µg/mL, an MIC (organism code QQ) of over 100 µg/mL and an MIC (organism code RR) of 6.1 µg/mL. For the same molecule, the MIC (organism code SS) was over 100 µg/mL, the MIC (organism code TT) was over 100 µg/mL and the MIC (organism code UU) was 50 µg/mL. The MIC (organism code VV) was 3.1 µg/mL, the MIC (organism code WW) was 64 µg/mL and the MIC (organism code XX) was 0.25 µg/mL. It also gave an MIC (organism code YY) of 0.25 µg/mL, an MIC (organism code ZZ) of over 128 µg/mL and an MIC (organism code ZZA) of 1 µg/mL.

Molecule `CC[C@H]1OC(=O)[C@H](C)C(=O)[C@H](C)[C@@H](O[C@@H]2O[C@H](C)C[C@H](N(C)C)[C@H]2O)[C@@](C)(OCC#Cc2cnc3ccc([N+](=O)[O-])cc3c2)C[C@@H](C)C(=O)[C@H](C)[C@H]2NC(=O)O[C@@]21C` [Example 248, Compound of Formula (IX): L is CO, T is NH, R is —CH2—C≡C-(6-nitro-3-quinolyl)] has an MIC (organism code AA) of 0.05 µg/mL, an MIC (organism code BB) of 0.05 µg/mL and an MIC (organism code CC) of over 100 µg/mL. For the same molecule, the MIC (organism code DD) was 0.05 µg/mL, the MIC (organism code EE) was 0.05 µg/mL and the MIC (organism code FF) was 0.02 µg/mL. For the same molecule, the MIC (organism code GG) was over 100 µg/mL, the MIC (organism code HH) was 0.05 µg/mL and the MIC (organism code II) was 0.02 µg/mL. It also gave an MIC (organism code JJ) of 0.02 µg/mL, an MIC (organism code KK) of at most 0.005 µg/mL and an MIC (organism code LL) of at most 0.005 µg/mL. The MIC (organism code MM) was 0.39 µg/mL, the MIC (organism code NN) was 0.1 µg/mL and the MIC (organism code OO) was 0.02 µg/mL. It also gave an MIC (organism code PP) of 0.1 µg/mL, an MIC (organism code QQ) of 50 µg/mL and an MIC (organism code RR) of 0.39 µg/mL. It also gave an MIC (organism code SS) of 50 µg/mL, an MIC (organism code TT) of over 100 µg/mL and an MIC (organism code UU) of 0.39 µg/mL. The MIC (organism code VV) was 0.02 µg/mL, the MIC (organism code WW) was 3 µg/mL and the MIC (organism code XX) was 0.03 µg/mL. For the same molecule, the MIC (organism code YY) was 0.03 µg/mL, the MIC (organism code ZZ) was 4 µg/mL and the MIC (organism code ZZA) was 0.25 µg/mL.

In the case of `CC[C@H]1OC(=O)[C@H](C)C(=O)[C@H](C)[C@@H](O[C@@H]2O[C@H](C)C[C@H](N(C)C)[C@H]2O)[C@@](C)(OCC=Cc2ccccc2)C[C@@H](C)C(=O)[C@H](C)[C@H]2OC(=O)O[C@@]21C` [Example 72, Compound of Formula (IX): L is CO, T is O, R is —CH2CH═CH-Phenyl], the MIC (Candida albicans CCH 442 (code TT)) is reported as over 100 µg/mL, the MIC (Enterococcus faecism ATCC 8043 (code II)) is reported as 0.05 µg/mL and the MIC (Escherichia coli DC-2 (code SS)) is reported as over 100 µg/mL. The MIC (Escherichia coli SS (code RR)) was 0.78 µg/mL, the MIC (Haemophilis influenzae DILL AMP R (code WW)) was 8 µg/mL and the MIC (Micrococcus luteus ATCC 4698 (code PP)) was 0.1 µg/mL. The MIC (Micrococcus luteus ATCC 9341 (code OO)) was 0.01 µg/mL, the MIC (Mycobacterium smegmatis ATCC 114 (code UU)) was 0.78 µg/mL and the MIC (Nocardia Asteroides ATCC9970 (code VV)) was 0.1 µg/mL. It also gave an MIC (Staphylococcus aureus 1775 (code GG)) of 100 µg/mL, an MIC (Staphylococcus aureus A5177 (code BB)) of 0.1 µg/mL and an MIC (Staphylococcus aureus A-5278 (code CC)) of over 100 µg/mL. It also gave an MIC (Staphylococcus aureus ATCC 6538P (code AA)) of 0.1 µg/mL, an MIC (Staphylococcus aureus CMX 553 (code FF)) of 0.2 µg/mL and an MIC (Staphylococcus aureus CMX 642A (code DD)) of 0.1 µg/mL. The MIC (Staphylococcus aureus NCTC10649M (code EE)) was 0.1 µg/mL, the MIC (Staphylococcus epidermidis 3519 (code HH)) was 0.1 µg/mL and the MIC (Streptococcus Pneumonia 5649 (code ZZA)) was 0.5 µg/mL. The MIC (Streptococcus Pneumonia 5979 (code ZZ)) was 64 µg/mL, the MIC (Streptococcus Pneumonia ATCC6303 (code XX)) was 0.06 µg/mL and the MIC (Streptococcus Pneumonia GYR 1171 (code YY)) was 0.06 µg/mL. For the same molecule, the MIC (Streptococcus agalactiae CMX 508 (code KK)) was 0.01 µg/mL, the MIC (Streptococcus bovis A-5169 (code JJ)) was 0.01 µg/mL and the MIC (Streptococcus pyogenes 930 (code MM)) was 50 µg/mL. For the same molecule, the MIC (Streptococcus pyogenes EES61 (code LL)) was under 0.005 µg/mL and the MIC (Streptococcus pyogenes PIU 2548 (code NN)) was 0.2 µg/mL.
